Measurements published in ChEMBL document CHEMBL1157515, “Discovery of a novel class of 2-ureido thiophene carboxamide checkpoint kinase inhibitors” (Bioorg Med Chem Lett, 2008).
pEC50, pIC50: −log10 of the molar value.

Experiments:
[1] = biological target: T1, Serine/threonine-protein kinase Chk1 (Homo sapiens, UniProt O14757); assay: Inhibition of Chk1
T1 sequence (O14757 whole entry): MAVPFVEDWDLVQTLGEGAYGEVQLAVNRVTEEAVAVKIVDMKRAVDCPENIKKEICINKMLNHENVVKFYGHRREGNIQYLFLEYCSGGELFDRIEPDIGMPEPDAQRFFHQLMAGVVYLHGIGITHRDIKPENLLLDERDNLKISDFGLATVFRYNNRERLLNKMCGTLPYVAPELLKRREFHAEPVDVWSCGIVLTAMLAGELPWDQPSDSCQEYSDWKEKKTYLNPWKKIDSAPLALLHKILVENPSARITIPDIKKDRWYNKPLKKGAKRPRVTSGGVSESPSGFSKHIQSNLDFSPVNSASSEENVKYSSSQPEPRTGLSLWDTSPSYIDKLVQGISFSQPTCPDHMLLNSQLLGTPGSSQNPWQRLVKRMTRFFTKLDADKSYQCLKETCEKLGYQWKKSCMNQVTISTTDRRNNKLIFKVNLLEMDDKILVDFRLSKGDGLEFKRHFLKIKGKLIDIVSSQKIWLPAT

HT-29 = assay: Abrogation of camptothecin induced cell cycle arrest at G2/M phase in human HT29 cells; assay type: functional, cell-based
[2] = Clearance in mouse; assay type: ADME, organism-based; conditions: in vivo
[3] = Lipophilicity, log D of the compound; assay type: physicochemical; conditions: octanol/water
[4] = Clearance in dog; assay type: ADME, organism-based, Canis lupus familiaris; conditions: in vivo
[5] = Solubility of the compound; assay type: physicochemical
[6] = Half life in dog; assay type: ADME, organism-based, Canis lupus familiaris; conditions: in vivo
[7] = Inhibition of CYP; assay type: ADME
[8] = biological target: Voltage-gated inwardly rectifying potassium channel KCNH2 (Homo sapiens, UniProt Q12809); assay: Inhibition of human ERG
[9] = Oral bioavailability in dog; assay type: ADME, organism-based, Canis lupus familiaris; conditions: in vivo
[10] = Half life in mouse; assay type: ADME, organism-based; conditions: in vivo

Chain of Voltage-gated inwardly rectifying potassium channel KCNH2 (Q12809 whole entry): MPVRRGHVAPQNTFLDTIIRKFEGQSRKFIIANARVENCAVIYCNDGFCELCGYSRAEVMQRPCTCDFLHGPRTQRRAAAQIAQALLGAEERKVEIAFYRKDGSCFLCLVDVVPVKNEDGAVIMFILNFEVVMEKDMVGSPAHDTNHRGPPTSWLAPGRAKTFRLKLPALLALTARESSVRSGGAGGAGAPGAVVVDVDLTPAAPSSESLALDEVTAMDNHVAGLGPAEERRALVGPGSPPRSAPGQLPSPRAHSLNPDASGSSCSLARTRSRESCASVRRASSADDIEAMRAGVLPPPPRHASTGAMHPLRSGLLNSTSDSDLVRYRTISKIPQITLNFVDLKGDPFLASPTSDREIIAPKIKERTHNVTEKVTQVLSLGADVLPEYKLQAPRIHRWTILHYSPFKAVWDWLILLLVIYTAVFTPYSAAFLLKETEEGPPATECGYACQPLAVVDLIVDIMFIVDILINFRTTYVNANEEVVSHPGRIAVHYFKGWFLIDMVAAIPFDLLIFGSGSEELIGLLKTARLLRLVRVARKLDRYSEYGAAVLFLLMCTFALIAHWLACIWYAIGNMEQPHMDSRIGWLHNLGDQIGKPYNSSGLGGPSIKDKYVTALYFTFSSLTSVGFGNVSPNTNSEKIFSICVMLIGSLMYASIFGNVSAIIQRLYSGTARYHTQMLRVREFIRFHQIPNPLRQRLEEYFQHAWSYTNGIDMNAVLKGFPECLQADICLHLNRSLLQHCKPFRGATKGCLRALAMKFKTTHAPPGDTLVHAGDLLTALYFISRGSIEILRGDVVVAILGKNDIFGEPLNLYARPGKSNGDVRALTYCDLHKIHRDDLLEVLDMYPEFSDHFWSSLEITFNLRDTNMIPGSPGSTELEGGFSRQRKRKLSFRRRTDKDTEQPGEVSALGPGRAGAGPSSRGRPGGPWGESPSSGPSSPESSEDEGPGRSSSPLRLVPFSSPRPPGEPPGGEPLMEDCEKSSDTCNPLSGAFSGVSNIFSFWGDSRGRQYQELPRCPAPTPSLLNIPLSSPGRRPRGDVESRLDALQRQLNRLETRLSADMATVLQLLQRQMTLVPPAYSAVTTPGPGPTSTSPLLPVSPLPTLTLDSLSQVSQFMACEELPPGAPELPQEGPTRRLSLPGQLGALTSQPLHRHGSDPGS

Structure (SMILES) | pIC50 [1] | pEC50 (HT-29; Homo sapiens, HT-29) | also measured
CNCc1ccc(-c2cc(C(N)=O)c(NC(N)=O)s2)cc1 | < 6.52 |  | 
CCN(CC)CCOc1ccc(-c2cc(C(=O)Nc3cccc(CO)c3)c(NC(N)=O)s2)cc1 | 7.30 | < 4.90 | 
CN(C)CCOc1ccc(-c2cc(C(N)=O)c(NC(N)=O)s2)cc1 |  | < 4.90 | 
COc1ccc(-c2cc(C(N)=O)c(NC(N)=O)s2)cc1 | 5.30 |  | 
COCCNCc1ccc(-c2cc(C(N)=O)c(NC(N)=O)s2)cc1 | 7.14 |  | 
CN(CCO)Cc1ccc(-c2cc(C(N)=O)c(NC(N)=O)s2)cc1 | 7.51 |  | 
CN(C)CCCOc1ccc(-c2cc(C(N)=O)c(NC(N)=O)s2)cc1 | 6.64 |  | 
NC(=O)Nc1sc(-c2ccc(OCCN3CCCCC3)cc2)cc1C(N)=O | 6.64 |  | 
NC(=O)Nc1sc(-c2ccc(OCCOCC3CC3)cc2)cc1C(N)=O | 4.64 |  | 
COCCOCCOc1ccc(-c2cc(C(N)=O)c(NC(N)=O)s2)cc1 | 5.39 |  | 
NC(=O)Nc1sc(-c2ccc(CNC3CCCC3)cc2)cc1C(N)=O | 7.41 |  | 
COCCOc1ccc(-c2cc(C(N)=O)c(NC(N)=O)s2)cc1 | 5.17 |  | 
CN(CCN)C(=O)c1cc(-c2ccccc2)sc1NC(N)=O | 5.26 |  | 
NC(=O)Nc1sc(-c2ccc(O)cc2)cc1C(=O)N[C@H]1CCCNC1 | 8.15 | 5.92 | 
NC(=O)Nc1sc(-c2ccccc2)cc1C(=O)NC1CCOCC1 | 5.68 |  | 
NC(=O)Nc1sc(-c2ccccc2F)cc1C(=O)N[C@H]1CCCNC1 | 8.05 | 7.10 | 
CNCCNC(=O)c1cc(-c2ccccc2)sc1NC(N)=O | 7.00 | 6.24 | 
CN(C)CCNC(=O)c1cc(-c2ccccc2)sc1NC(N)=O | 6.96 | 5.39 | 
CC1(C)CCCC(C)(C)N1Cc1ccc(-c2cc(C(N)=O)c(NC(N)=O)s2)cc1 | 7.77 |  | 
CCN(CC)CCOc1ccc(-c2cc(C(=O)Nc3cccnc3)c(NC(N)=O)s2)cc1 | 7.00 | < 4.90 | 
CCN(CC)CCOc1ccc(-c2cc(C(=O)NC3CCNC3)c(NC(N)=O)s2)cc1 (stereo unspecified) | 7.00 | < 4.90 | 
CCN(CC)CCOc1ccc(-c2cc(C(=O)NC3CCNCC3)c(NC(N)=O)s2)cc1 | 7.46 | < 4.90 | 
NC(=O)Nc1sc(-c2ccccc2)cc1C(=O)NC1CCCCC1 | 5.41 |  | 
NC(=O)Nc1sc(-c2ccccc2)cc1C(=O)Nc1ccccc1 | 6.00 |  | 
N#Cc1ccc(-c2cc(C(=O)N[C@H]3CCCNC3)c(NC(N)=O)s2)cc1 | 8.22 | 7.10 | 

Structure (SMILES) | pIC50 [1] | pEC50 (HT-29; Homo sapiens, HT-29) | also measured
NC(=O)Nc1sc(-c2ccc(C(F)(F)F)cc2)cc1C(=O)N[C@H]1CCCNC1 | 7.72 | 6.77 | 
NC(=O)Nc1sc(-c2ccc(Cl)cc2)cc1C(=O)N[C@H]1CCCNC1 | 8.00 | 7.40 | 
NC(=O)Nc1sc(-c2cccc(C(N)=O)c2)cc1C(=O)N[C@H]1CCCNC1 | 8.30 | 5.09 | 
NC(=O)Nc1sc(-c2ccccc2)cc1C(=O)NCC1CNCCO1 (stereo unspecified) | 6.52 |  | 
NC(=O)Nc1sc(-c2ccccc2)cc1C(=O)NC[C@H]1CCCNC1 | 7.00 | 5.68 | 
NC(=O)Nc1sc(-c2ccccc2)cc1C(=O)NC[C@@H]1CCCNC1 | 7.00 | 5.21 | 
NC(=O)Nc1sc(-c2ccccc2)cc1C(=O)N[C@@H]1CCCCNC1 | 8.52 | 6.96 | 
NC(=O)Nc1sc(-c2ccccc2)cc1C(=O)NC1CNCCNC1=O (stereo unspecified) | 6.96 |  | 
NC(=O)Nc1sc(-c2ccccc2)cc1C(=O)N[C@@H]1CN2CCC1CC2 | 6.89 |  | 
CN1CCC[C@@H](NC(=O)c2cc(-c3ccccc3)sc2NC(N)=O)C1 | 6.80 | 5.64 | 
NC(=O)Nc1sc(-c2ccc(C(=O)N3CCCCC3)cc2)cc1C(=O)N[C@H]1CCCNC1 | 7.96 | 6.89 | 
NC(=O)Nc1sc(-c2ccccc2)cc1C(=O)N[C@H]1CCCNC1 |  |  | clearance [2]: 35.7 mL/min/kg; logD [3]: 1.28; clearance [4]: 12.8 mL/min/kg; solubility [5]: > 2000 µM; half-life [6]: 5.2 h; pIC50 [7]: < 5.00; pIC50 [8]: < 4.50; bioavailability [9]: 78.8%; half-life [10]: 1.5 h
NC(=O)Nc1sc(-c2ccc(N)cc2)cc1C(=O)N[C@H]1CCCNC1 | 7.89 | 6.04 | 
CNC(=O)c1ccc(-c2cc(C(=O)N[C@H]3CCCNC3)c(NC(N)=O)s2)cc1 | 8.05 | 5.37 | 
CS(=O)(=O)Nc1ccc(-c2cc(C(=O)N[C@H]3CCCNC3)c(NC(N)=O)s2)cc1 | 7.39 | 5.66 | 
CC(=O)c1ccc(-c2cc(C(=O)N[C@H]3CCCNC3)c(NC(N)=O)s2)cc1 | 8.15 | 7.22 | 
COc1ccc(Nc2cc(-c3cccnc3)[nH]n2)cc1OC | 6.22 |  | 
NC(=O)Nc1sc(-c2cccnc2)cc1C(=O)N[C@H]1CCCNC1 | 8.22 |  | pEC50 (HT-29; ht-29): 6.52
NC(=O)Nc1sc(-c2ccncc2)cc1C(=O)N[C@H]1CCCNC1 | 8.40 |  | pEC50 (HT-29; ht-29): 6.47
NC(=O)Nc1sc(-c2ccccc2)cc1C(=O)NC1CCNCC1 | 6.96 |  | 
CN(C)c1ccc(-c2cc(C(=O)N[C@H]3CCCNC3)c(NC(N)=O)s2)cc1 | 7.39 | 7.05 | 
NC(=O)Nc1sc(-c2ccc(C(=O)N3CCOCC3)cc2)cc1C(=O)N[C@H]1CCCNC1 | 8.00 | 6.21 | 
CC(=O)Nc1cccc(-c2cc(C(=O)N[C@H]3CCCNC3)c(NC(N)=O)s2)c1 | 8.10 | 5.74 | 
NC(=O)Nc1sc(-c2ccccc2)cc1C(=O)N1CCOCC1 | < 4.52 |  | 
NC(=O)Nc1sc(-c2ccc(CN3CCCCC3)cc2)cc1C(N)=O | 7.43 | 6.57 | 

Structure (SMILES) | pIC50 [1] | pEC50 (HT-29; Homo sapiens, HT-29) | also measured
NCCNC(=O)c1cc(-c2ccccc2)sc1NC(N)=O | 7.52 | 6.02 | 
NC(=O)Nc1sc(-c2ccc(OC(F)(F)F)cc2)cc1C(N)=O | 5.59 |  | 
COc1ccc(CNCc2ccc(-c3cc(C(N)=O)c(NC(N)=O)s3)cc2)cc1 | 7.54 |  | 
CNCCOc1ccc(-c2cc(C(N)=O)c(NC(N)=O)s2)cc1 | 6.44 |  | 
NC(=O)Nc1sc(-c2ccccc2)cc1C(=O)NC1CCCCNC1=O (stereo unspecified) | 4.64 | < 4.89 | 
NC(=O)Nc1sc(-c2ccccc2)cc1C(=O)NCCO | 5.29 |  | 
NC(=O)Nc1sc(-c2ccccc2)cc1C(=O)N[C@H]1CN2CCC1CC2 | 6.01 |  | 
Cc1ccc(-c2cc(C(=O)N[C@H]3CCCNC3)c(NC(N)=O)s2)cc1 | 8.00 | 7.15 | 
NC(=O)Nc1sc(-c2cccc(Cl)c2)cc1C(=O)N[C@H]1CCCNC1 | 7.85 | 7.40 | 
CN1CCN(Cc2ccc(-c3cc(C(N)=O)c(NC(N)=O)s3)cc2)CC1 | 7.39 |  | 
NC(=O)Nc1sc(-c2ccccc2)cc1C(=O)NCc1ccccc1 | < 5.00 |  | 
NC(=O)Nc1sc(-c2ccc(F)cc2)cc1C(=O)N[C@H]1CCCNC1 | 8.05 | 7.52 | 
NC(=O)Nc1sc(-c2cccc(F)c2)cc1C(=O)N[C@H]1CCCNC1 | 7.96 |  | pEC50 (HT-29; ht-29): 7.70
CN1CCN(C(=O)c2cc(-c3ccccc3)sc2NC(N)=O)CC1 | 5.15 |  | 
CCN(CC)CCOc1ccc(-c2cc(C(=O)NC3CCCNC3)c(NC(N)=O)s2)cc1 (stereo unspecified) |  | 7.77 | 
CCN(CC)CCOc1cccc(-c2cc(C(=O)N[C@H]3CCCNC3)c(NC(N)=O)s2)c1 | > 8.00 | 5.96 | 
NC(=O)Nc1sc(-c2ccccc2)cc1C(=O)N[C@@H]1CCCNC1 |  |  | pEC50 (HT-29; ht-29): 5.72
NC(=O)Nc1sc(-c2ccc(C(N)=O)cc2)cc1C(=O)N[C@H]1CCCNC1 | 8.30 | 5.49 | 
NC(=O)Nc1sc(-c2cccs2)cc1C(=O)N[C@H]1CCCNC1 | 8.52 | > 8.10 | 
NC(=O)Nc1sc(-c2ccsc2)cc1C(=O)N[C@H]1CCCNC1 | 8.22 | > 8.05 | 
CS(=O)(=O)c1ccc(-c2cc(C(=O)N[C@H]3CCCNC3)c(NC(N)=O)s2)cc1 | 8.22 | 6.70 | 
CN(C)C(=O)c1ccc(-c2cc(C(=O)N[C@H]3CCCNC3)c(NC(N)=O)s2)cc1 | 8.05 | 6.49 | 
CCN(CC)CCOc1cccc(-c2cc(C(=O)NC3CCCNC3)c(NC(N)=O)s2)c1 (racemic) | 8.00 | 5.59 | 
